Biological target: BTK (Homo sapiens (Human), UniProt Q06187)
Test: Z'-LYTE kinase inhibition assay against BTK
Assay type: biochemical
Settings: for IC50: series of concentrations, GraphPad Prism 5
Experimental: Inhibitory activities of compounds against BTK, EGFR T790M, EGFR L858R, and EGFR L858R/T790M were measured using Z′-LYTE® Method from Life Technologies as briefly described in the following.
Test Compounds are screened in 1% DMSO (final) in the well. For 10 point titrations, 3-fold serial dilutions are conducted from the starting concentration. All ATP Solutions are diluted to a 4× working concentration in Kinase Buffer (50 mM HEPES pH 7.5, 0.01% BRIJ-35, 10 mM MgCl2, 1 mM EGTA). Peptide/Kinase Mixtures are diluted to a 2× working concentration in the appropriate Kinase Buffers as described below. • (i) Peptide/Kinase Mixtures for measurement of EGFR (ErbB1) L858R: • The 2×EGFR (ErbB1) L858R/Tyr 04 mixture is prepared in 50 mM HEPES pH 7.5, 0.01% BRIJ-35, 10 mM MgCl2, 4 mM MnCl2. 1 mM EGTA, 2 mM DTT. The final 10 μL Kinase Reaction consists of 0.2-1.68 ng EGFR (ErbB1) L858R and 2 μM Tyr 04 in 50 mM HEPES pH 7.5, 0.01% BRIJ-35, 10 mM MgCl2, 2 mM MnCl2, 1 mM EGTA, 1 mM DTT. After the 1 hour Kinase Reaction incubation, 5 μL of a 1:64 dilution of Development Reagent B is added. • (ii) Peptide/Kinase Mixtures for measurement of EGFR (ErbB1) T790M: The 2×EGFR (ErbB1) T790M/Tyr 04 mixture is prepared in 50 mM HEPES pH 6.5, 0.01% BRIJ-35, 10 mM MgCl2, 1 mM EGTA, 0.02% NaN3. The final 10 μL Kinase Reaction consists of 3.9-30.2 ng EGFR (ErbB1) T790M and 2 μM Tyr 04 in 50 mM HEPES pH 7.0, 0.01% BRIJ-35, 10 mM MgCl2, 1 mM EGTA, 0.01% NaN3. After the 1 hour Kinase Reaction incubation, 5 μL of a 1:64 dilution of Development Reagent B is added. • (iii) Peptide/Kinase Mixtures for measurement of EGFR (ErbB1) L858R/T790M: The 2×EGFR (ErbB1) T790M L858R/Tyr 04 mixture is prepared in 50 mM HEPES pH 6.5, 0.01% BRIJ-35, 10 mM MgCl2, 1 mM EGTA, 0.02% NaN3. The final 10 μL Kinase Reaction consists of 0.38-4.22 ng EGFR (ErbB1) T790M L858R and 2 μM Tyr 04 in 50 mM HEPES pH 7.0, 0.01% BRIJ-35, 10 mM MgCl2, 1 mM EGTA, 0.01% NaN3. After the 1 hour Kinase Reaction incubation, 5 μL of a 1:64 dilution of Development Reagent B is added. • (iv) Peptide/Kinase Mixtures for measurement of BTK: The 2×BTK/Tyr 01 mixture is prepared in 50 mM HEPES pH 7.5, 0.010/BRIJ-35, 10 mM MgCl2, 1 mM EGTA. The final 10 μL Kinase Reaction consists of 1.04-10.4 ng BTK and 2 μM Tyr 01 in 50 mM HEPES pH 7.5, 0.01% BRIJ-35, 10 mM MgCl2, 1 mM EGTA. After the 1 hour Kinase Reaction incubation, 5 μL of a 1:256 dilution of Development Reagent B is added.
Reaction starts by 30-second shaking of mixture consisting of 2.5 μL 4× test compound, 5 μL 2× kinase reaction mixture and 2.5 μL 4×ATP Solution on Bar-coded Corning, low volume NBS, black 384-well plate (Corning Cat. #3676). Then the mixture is incubated for 60-minute at room temperature for the kinase reaction, followed by addition of 5 μL of a 1:1024 dilution of development reagent A and 30-second plate shake. The mixture is then incubated for another 60-minute at room temperature for development reaction. Finally fluorescence is read by plate reader.
The Z′-LYTE assay was carried out with ATP concentration at Km. The scale utilized in Tables 2-6 is as follows: ++ more than 50% inhibition and + less than 50% inhibition.
To determine IC50 of a compound against a kinase, a series of concentrations of the compound were tested for the inhibition. IC50 was calculated by plotting the concentration of compound vs the percentage of inhibition in treated wells using GraphPad Prism 5. […] The scale utilized in Table 7 is as follows: ++ less than 100 nM and + greater than 100 nM.

[1] = compound at 100 nM, ATP concentration at Km

Sequence of BTK (Q06187 whole entry): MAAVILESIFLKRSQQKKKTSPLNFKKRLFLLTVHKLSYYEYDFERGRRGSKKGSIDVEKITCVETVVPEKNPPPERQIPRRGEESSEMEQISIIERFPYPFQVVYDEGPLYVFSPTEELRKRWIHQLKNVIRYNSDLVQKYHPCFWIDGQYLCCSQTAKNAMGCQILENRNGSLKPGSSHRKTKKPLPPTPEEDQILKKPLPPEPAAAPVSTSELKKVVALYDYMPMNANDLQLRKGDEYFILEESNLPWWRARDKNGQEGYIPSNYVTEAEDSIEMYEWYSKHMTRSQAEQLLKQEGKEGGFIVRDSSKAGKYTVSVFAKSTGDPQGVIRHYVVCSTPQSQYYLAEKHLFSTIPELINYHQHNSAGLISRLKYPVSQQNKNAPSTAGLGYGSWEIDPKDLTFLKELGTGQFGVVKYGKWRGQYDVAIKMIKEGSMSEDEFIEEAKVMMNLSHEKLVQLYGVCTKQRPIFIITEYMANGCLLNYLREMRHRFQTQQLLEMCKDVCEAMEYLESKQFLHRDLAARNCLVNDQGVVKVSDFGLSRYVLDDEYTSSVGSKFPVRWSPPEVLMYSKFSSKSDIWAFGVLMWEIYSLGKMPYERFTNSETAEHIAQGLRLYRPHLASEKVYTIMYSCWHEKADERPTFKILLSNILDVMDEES

Compound	IC50	inhibition at 0.1 µM [1]	% Inhibition against BTK [1]
4-(5-Amino-1-(1-(but-2-ynoyl)pyrrolidin-3-yl)imidazo[1,5-c]pyrimidin-3-yl)-N-(pyridin-2-yl)-3-(trifluoromethyl)benzamide [C248]	< 100 nM	–	–
C=CC(=O)N1CCC(c2nc(-c3ccc(Oc4ccccn4)cc3)n3c(N)nccc23)C1 (racemic) [C224, (R/S)-1-(3-(5-amino-3-(4-(pyridin-2-yloxy)phenyl)imidazo[1,5-c]pyrimidin-1-yl)pyrrolidin-1-yl)prop-2-en-1-one]	< 100 nM	> 50%	–
C=CC(=O)N1CCC(c2nc(-c3ccc(Oc4ccccn4)cc3)n3c(N)nccc23)C1 (racemic) [C225, (S/R)-1-(3-(5-amino-3-(4-(pyridin-2-yloxy)phenyl)imidazo[1,5-c]pyrimidin-1-yl)pyrrolidin-1-yl)prop-2-en-1-one]	< 100 nM	–	++ (more than 50% inhibition)
C=CC(=O)Nc1cccc(-c2cc(-c3ccccc3)cc3cnc(-c4ccccc4)nc23)c1 [C001, N-(3-(2,6-diphenylquinazolin-8-yl)phenyl)acrylamide]	–	< 50%	–
C=CC(=O)Nc1cccc(-c2cc(-c3ccccc3Cl)cc3cnc(-c4ccccc4)nc23)c1 [C002, N-(3-(6-(2-chlorophenyl)-2-phenylquinazolin-8yl)phenyl)acrylamide]	–	< 50%	–
C=CC(=O)Nc1cccc(-c2cc(-c3ccccc3)cc3cncnc23)c1 [C004, N-(3-(6-phenylquinazolin-8-yl)phenyl)acrylamide]	< 100 nM	> 50%	–
C=CC(=O)Nc1cccc(-c2cc(-c3ccccc3)cc3cnc(N)nc23)c1 [C005, N-(3-(2-amino-6-phenylquinazolin-8-yl)phenyl)acrylamide]	< 100 nM	> 50%	–
C=CC(=O)Nc1cccc(-c2cc(-c3ccncc3)cc3cncnc23)c1 [C006, N-(3-(6-(pyridin-4-yl)quinazolin-8-yl)phenyl)acrylamide]	< 100 nM	> 50%	–
C=CC(=O)Nc1cccc(-c2cc(-c3cccnc3)cc3cncnc23)c1 [C007, N-(3-(6-(pyridin-3-yl)quinazolin-8-yl)phenyl)acrylamide]	< 100 nM	> 50%	–
C=CC(=O)N1CCC=C(c2cc(-c3ccc(C(=O)Nc4ccccn4)cc3)cc3cncnc23)C1 [C009, 4-(8-(1-acryloyl-1,2,5,6-tetrahydropyridin-3-yl)quinazolin-6-yl)-N-(pyridin-2-yl)benzamide]	–	< 50%	–
C=CC(=O)Nc1cccc(-c2cc(-c3ccc(C)nc3)cc3cncnc23)c1 [C010, N-(3-(6-(6-methylpyridin-3-yl)quinazolin-8-yl)phenyl)acrylamide]	–	> 50%	–
C=CC(=O)Nc1cccc(-c2cc(-c3cccc(Nc4cccc(C(F)(F)F)c4)c3)cc3cncnc23)c1 [C011, N-(3-(6-(3-((3-(trifluoromethyl)phenyl)amino)phenyl)quinazolin-8-yl)phenyl)acrylamide]	–	< 50%	–
C=CC(=O)N1CCCC(n2c(-c3ccccc3)nc3cncnc32)C1 (stereo not shown) [C012, 1-(3-(8-phenyl-9H-purin-9-yl)piperidin-1-yl)prop-2-en-1-one]	–	< 50%	–
C=CC(=O)Nc1cccc(-n2c(-c3ccccc3)nc3cncnc32)c1 [C014, N-(3-(8-phenyl-9H-purin-9-yl)phenyl)acrylamide]	–	< 50%	–
C=CC(=O)N1CCC(n2c(-c3ccccc3)nc3cnc(N)nc32)C1 (stereo not shown) [C015, 1-(3-(2-amino-8-phenyl-9H-purin-9-yl)pyrrolidin-1-yl)prop-2-en-1-one]	–	< 50%	–
C=CC(=O)Nc1cccc(-c2cc(-c3ccccc3)cc3c(N)ncnc23)c1 [C016, N-(3-(4-amino-6-phenylquinazolin-8-yl)phenyl)acrylamide]	–	< 50%	–
C=CC(=O)Nc1cccc(-c2cc(-c3cccc(Nc4ccccc4)c3)cc3cncnc23)c1 [C017, N-(3-(6-(3-(phenylamino)phenyl)quinazolin-8-yl)phenyl)acrylamide]	–	> 50%	–
C=CC(=O)Nc1cccc(-c2cc(-c3ccnc(C(F)(F)F)c3)cc3cncnc23)c1 [C018, N-(3-(6-(2-(trifluoromethyl)pyridin-4-yl)quinazolin-8-yl)phenyl)acrylamide]	–	< 50%	–
C=CC(=O)Nc1cccc(-c2cc(-c3ccc(Nc4cccc(C(F)(F)F)c4)cc3)cc3cncnc23)c1 [C019, N-(3-(6-(4-((3-(trifluoromethyl)phenyl)amino)phenyl)quinazolin-8-yl)phenyl)acrylamide]	–	< 50%	–
C=CC(=O)N1CCCC(c2cc(-c3ccccc3)cc3cncnc23)C1 (stereo not shown) [C020, 1-(3-(6-phenylquinazolin-8-yl)piperidin-1-yl)prop-2-en-1-one]	–	< 50%	–
C=CC(=O)N1CCC(n2c(-c3ccccc3)nc3cncnc32)C1 (stereo not shown) [C021, 1-(3-(8-phenyl-9H-purin-9-yl)pyrrolidin-1-yl)prop-2-en-1-one]	–	< 50%	–
C=CC(=O)Nc1cccc(-c2cc(-c3cccc(Nc4ccccc4)c3)cc3c(N)ncnc23)c1 [C022, N-(3-(4-amino-6-(3-(phenylamino)phenyl)quinazolin-8-yl)phenyl)acrylamide]	–	< 50%	–
C=CC(=O)Nc1cccc(-c2cc(-c3ccc(Oc4ccccc4)cc3)cc3cncnc23)c1 [C023, N-(3-(6-(4-phenoxyphenyl)quinazolin-8-yl)phenyl)acrylamide]	< 100 nM	> 50%	–
C=CC(=O)Nc1cccc(-n2c(-c3ccccc3)nc3cnc(N)nc32)c1 [C024, N-(3-(2-amino-8-phenyl-9H-purin-9-yl)phenyl)acrylamide]	–	< 50%	–
C=CC(=O)Nc1cccc(-c2cc(-c3ccc(Nc4ccccc4)cc3)cc3cncnc23)c1 [C025, N-(3-(6-(4-(phenylamino)phenyl)quinazolin-8-yl)phenyl)acrylamide]	–	< 50%	–
C=CC(=O)N1CCC(n2c(-c3ccccc3Cl)nc3cnc(N)nc32)C1 (stereo not shown) [C026, 1-(3-(2-amino-8-(2-chlorophenyl)-9H-purin-9-yl)pyrrolidin-1-yl)prop-2-en-1-one]	–	< 50%	–
C=CC(=O)N1CCCC(n2c(-c3ccccc3Cl)nc3cnc(N)nc32)C1 (stereo not shown) [C027, 1-(3-(2-amino-8-(2-chlorophenyl)-9H-purin-9-yl)piperidin-1-yl)prop-2-en-1-one]	–	< 50%	–
C=CC(=O)N1CCCC(c2cc(-c3ccc(Oc4ccccc4)cc3)cc3cnc(N)nc23)C1 (stereo not shown) [C028, 1-(3-(2-amino-6-(4-phenoxyphenyl)quinazolin-8-yl)piperidin-1-yl)prop-2-en-1-one]	< 100 nM	> 50%	–
C=CC(=O)N1CCCC(c2cc(-c3cccc(Nc4cccc(C(F)(F)F)c4)c3)cc3cncnc23)C1 (stereo not shown) [C029, 1-(3-(6-(3-((3-(trifluoromethyl)phenyl)amino)phenyl)quinazolin-8-yl)piperidin-1-yl)prop-2-en-1-one]	–	< 50%	–
